In US20220257698A1, “ANGIOTENSIN TYPE 2 (AT2) RECEPTOR AGONISTS FOR USE IN THE TREATMENT OF CANCER” (LANTHIOPEP B.V., priority 2019, published 2022):

Test system: head & neck carcinoma PDX model HN10309
Assay: KcAng(1-7) on growth of head & neck carcinoma PDX HN10309 in mice
Type: in vivo, NMRI nu/nu mice (human PDX)
Experimental: In vivo studies were conducted at EPO GmbH Berlin. Large studies (FIG. 1A, 2, 3, 4, 5) comprised 3 groups of 10 mice/group and 5 animals as reserve, as outlined in Table 1. Smaller studies (FIG. 1B, 1C, 1D) comprised 2 groups of mice of 3 mice per group. The animals were allocated to the various treatment groups (e.g. 0.2 μg/kg and 30 μg/kg) with a maximum of 10 animals per group. […] The groups received subcutaneous (s.c.) drug injection (for max. 28 days) as outlined in the Table 1.
NMRI nu/nu mice were used in this study. The animals were female at age of 6 to 8 weeks. The respective PDX tumors were inoculated subcutaneously (s.c.), and the tumors were grown to achieve palpable tumor sizes before start of the respective treatments. The PDX included breast (MaCa4151), colon (Co9689A), head & neck (HN10309), lung (Lu7433) and ovarian (OvCa13329) cancer (Table 2).
Treatment with KcAng(1-7) was started with palpable tumors after the randomization of animals regarding tumor volume. KcAng(1-7) was applied s.c. by daily injections at […] or 30 μg/kg dose for a maximum of 28 days (or earlier as defined by the humane end point for the study).
KcAng(1-7) was prepared as follows: The compounds was suspended in sterile PBS resulting in a clear solution. The remains of this formulation were stored at 4° C.
Tumor growth stimulatory or inhibitory activity of the KcAng(1-7) was evaluated by determination of tumor volumes (TV). During the study, tumor volumes and body weight were measured twice a week, and the ratio of the mean tumor volumes between the compound-treated group and the vehicle-treated group (T/C) was calculated.
Tumor volume=(tumor width)×(tumor width)×(tumor length)+2
T/C=T÷C • T: Mean estimated tumor volume of the compound-treated group • C: Mean estimated tumor volume of the vehicle-treated group

[1] = Gr. B 0.2 μg/kg/d s.c., Day 35 (Meas. 1)
[2] = Gr. B 0.2 μg/kg/d s.c., Day 38 (Meas. 2)
[3] = Gr. B 0.2 μg/kg/d s.c., Day 41 (Meas. 3)
[4] = Gr. B 0.2 μg/kg/d s.c., Day 45 (Meas. 4)
[5] = Gr. B 0.2 μg/kg/d s.c., Day 49 (Meas. 5)
[6] = Gr. B 0.2 μg/kg/d s.c., Day 52 (Meas. 6)
[7] = Gr. B 0.2 μg/kg/d s.c., Day 55 (Meas. 7)
[8] = Gr. B 0.2 μg/kg/d s.c., Day 58 (Meas. 8)
[9] = Gr. B 0.2 μg/kg/d s.c., Day 63 (Meas. 9)
[10] = Gr. C 30 μg/kg/d s.c., Day 35 (Meas. 1)
[11] = Gr. C 30 μg/kg/d s.c., Day 38 (Meas. 2)
[12] = Gr. C 30 μg/kg/d s.c., Day 41 (Meas. 3)
[13] = Gr. C 30 μg/kg/d s.c., Day 45 (Meas. 4)
[14] = Gr. C 30 μg/kg/d s.c., Day 49 (Meas. 5)
[15] = Gr. C 30 μg/kg/d s.c., Day 52 (Meas. 6)
[16] = Gr. C 30 μg/kg/d s.c., Day 55 (Meas. 7)
[17] = Gr. C 30 μg/kg/d s.c., Day 58 (Meas. 8)
[18] = Gr. C 30 μg/kg/d s.c., Day 63 (Meas. 9)

Lys-Asp-Arg-Val-Abu/Ala-Ile-His-Abu/Ala (KDRVAIHA; not fully specified; cyclic thioether (Abu/Ala bridge); VARIANT (5)..(5) /replace=“Abu”; VARIANT (8)..(8) /replace=“Abu”; SITE (1)..(8) /note=“Variant residues given in the sequence have no preference with respect to those in the annotations for variant positions”) [KcAng(1-7)]
optT/C (30 μg/kg, day 14 of the treatment): 71% | effect on tumor volume (0.2 and 30 μg/kg, 28 days): did not result in a reduction or increase in tumor volume | RTV Mean [1]: 1 | RTV Median [1]: 1 | T/C [1]: 100.1% | Tumor Vol. Mean [1]: 0.083 cm^3 | Tumor Vol. Median [1]: 0.064 cm^3 | RTV Mean [2]: 1.6 | RTV Median [2]: 1.7 | T/C [2]: 107.9% | Tumor Vol. Mean [2]: 0.128 cm^3 | Tumor Vol. Median [2]: 0.085 cm^3 | RTV Mean [3]: 2.1 | RTV Median [3]: 2.1 | T/C [3]: 100.6% | Tumor Vol. Mean [3]: 0.164 cm^3 | Tumor Vol. Median [3]: 0.14 cm^3 | RTV Mean [4]: 2.6 | RTV Median [4]: 2.5 | T/C [4]: 116.7% | Tumor Vol. Mean [4]: 0.217 cm^3 | Tumor Vol. Median [4]: 0.158 cm^3 | RTV Mean [5]: 3.3 | RTV Median [5]: 3.2 | T/C [5]: 104.4% | Tumor Vol. Mean [5]: 0.275 cm^3 | Tumor Vol. Median [5]: 0.209 cm^3 | RTV Mean [6]: 4.4 | RTV Median [6]: 4 | T/C [6]: 126.7% | Tumor Vol. Mean [6]: 0.367 cm^3 | Tumor Vol. Median [6]: 0.303 cm^3 | RTV Mean [7]: 5.4 | RTV Median [7]: 4.8 | T/C [7]: 126.5% | Tumor Vol. Mean [7]: 0.443 cm^3 | Tumor Vol. Median [7]: 0.366 cm^3 | RTV Mean [8]: 5.8 | RTV Median [8]: 4.9 | T/C [8]: 115.2% | Tumor Vol. Mean [8]: 0.473 cm^3 | Tumor Vol. Median [8]: 0.437 cm^3 | RTV Mean [9]: 8.9 | RTV Median [9]: 7.3 | T/C [9]: 120.4% | Tumor Vol. Mean [9]: 0.677 cm^3 | Tumor Vol. Median [9]: 0.64 cm^3 | RTV Mean [10]: 1 | RTV Median [10]: 1 | T/C [10]: 99.5% | Tumor Vol. Mean [10]: 0.083 cm^3 | Tumor Vol. Median [10]: 0.077 cm^3 | RTV Mean [11]: 1.3 | RTV Median [11]: 1.3 | T/C [11]: 83.5% | Tumor Vol. Mean [11]: 0.099 cm^3 | Tumor Vol. Median [11]: 0.092 cm^3 | RTV Mean [12]: 1.6 | RTV Median [12]: 1.5 | T/C [12]: 74.6% | Tumor Vol. Mean [12]: 0.122 cm^3 | Tumor Vol. Median [12]: 0.117 cm^3 | RTV Mean [13]: 1.8 | RTV Median [13]: 1.7 | T/C [13]: 75% | Tumor Vol. Mean [13]: 0.139 cm^3 | Tumor Vol. Median [13]: 0.135 cm^3 | RTV Mean [14]: 2.2 | RTV Median [14]: 2.2 | T/C [14]: 71.3% | Tumor Vol. Mean [14]: 0.188 cm^3 | Tumor Vol. Median [14]: 0.187 cm^3 | RTV Mean [15]: 2.8 | RTV Median [15]: 2.9 | T/C [15]: 89.8% | Tumor Vol. Mean [15]: 0.26 cm^3 | Tumor Vol. Median [15]: 0.236 cm^3 | RTV Mean [16]: 3.5 | RTV Median [16]: 3.5 | T/C [16]: 92.1% | Tumor Vol. Mean [16]: 0.323 cm^3 | Tumor Vol. Median [16]: 0.283 cm^3 | RTV Mean [17]: 3.9 | RTV Median [17]: 4 | T/C [17]: 89.3% | Tumor Vol. Mean [17]: 0.367 cm^3 | Tumor Vol. Median [17]: 0.303 cm^3 | RTV Mean [18]: 5.6 | RTV Median [18]: 5.8 | T/C [18]: 96.3% | Tumor Vol. Mean [18]: 0.541 cm^3 | Tumor Vol. Median [18]: 0.505 cm^3
